Source: US20250108007A1, “LIPID COMPOUND AND LIPID NANOPARTICLE COMPOSITION” (SUZHOU ABOGEN BIOSCIENCES CO., LTD., priority 2021, published 2025)

Experiments:
[1] = Size and polydispersity of lipid nanoparticles by dynamic light scattering; format: physicochemical; conditions: LNP cationic lipid/DSPC/cholesterol/PEG-lipid 50:10:38.5:1.5 with mRNA
Experimental: (§1) Briefly, the cationic lipid, DSPC, cholesterol and PEG-lipid provided by the present invention were dissolved in ethanol at a molar ratio of 50:10:38.5:1.5, and mRNA was diluted in a citrate buffer at 10-50 mM, pH=4. The ethanolic lipid solution and the mRNA aqueous solution were mixed at a volume ratio of 1:3 by a microfluidic device at a flow rate of 9-30 mL/min, so as to prepare LNP at a weight ratio of total lipid to mRNA of about 10:1 to 30:1. PBS for dialysis was used instead of ethanol, thereby removing ethanol. Finally, the lipid nanoparticles were filtered through a 0.2 μm sterile filter.
(§2) The size of the lipid nanoparticles was determined by dynamic light scattering using 173° backscatter detection mode of Malvern Zetasizer Nano ZS (Malvern UK). According to the description of the manufacturer, the encapsulation efficiency of the lipid nanoparticle was determined using a Quant-it Ribogreen RNA quantitative assay kit (Thermo Fisher Scientific, UK).

[2] = Encapsulation efficiency of lipid nanoparticles (Quant-it Ribogreen RNA assay); format: physicochemical; conditions: LNP cationic lipid/DSPC/cholesterol/PEG-lipid 50:10:38.5:1.5 with mRNA
Experimental: as §1, §2

female ICR mice = assay: hEPO mRNA lipid nanoparticles in mice, serum EPO by ELISA; format: in vivo; conditions: hEPO mRNA LNP, 0.5 mg/kg, tail vein injection, blood e.g. 6 hours after administration, relative to MC3 LNP positive control
Experimental: Lipid nanoparticles including human erythropoietin (hEPO) mRNA encapsulated by compound in the following table were administered at a dose of 0.5 mg/kg to female ICR mice at 6-8 weeks of age (Xipuer-Bikai, Shanghai) via tail vein injection. Mouse blood samples were taken at specific time points (e.g., 6 hours) after administration. In addition to the above test groups, the lipid nanoparticles including dilinoleylmethyl-4-dimethylaminobutyrate (DLin-MC3-DMA, commonly abbreviated as MC3) encapsulated hEPO mRNA were administered at the same dose to mice of similar age and sex as positive controls.
After the last sampling time point, the mice were euthanized by excess CO2. Serum was separated from whole blood by centrifugation at 5,000 g for 10 minutes at 4° C., snap frozen and stored at −80° C. for analysis. ELSA analysis was performed using a commercially available kit (DEP00, R&D system) according to the manufacturer instructions.
The following table lists the characteristics of the tested lipid nanoparticles, including the expression levels measured from the test group above MC3.

SMILES | Polydispersity index (PDI) [1] | Size (nm) [1] [nm] | Encapsulation efficiency (EE %) [2] [%] | EPO expression relative to MC3 (female ICR mice)
CCCCCCCCC(CCCCCC)CC(=O)OCC(CCCCN1CCC(O)(CN(C)C)CC1)COC(=O)CC(CCCCCC)CCCCCCCC (centres unmarked) [Compound 15] | 0.06 | 53.67 | 94.3 | Not detected
CCCCCCCCC(CCCCCCCC)COC(=O)CCCCCN(CCCCCC(=O)OCC(CCCCCCCC)CCCCCCCC)CC1(O)CCN(C)CC1 [Compound 2] | 0.114 | 80.02 | 98.1 | Not detected
CCCCCCCCC(CCCCCCCC)COC(=O)CCCCCN(CCCCCC(=O)OCC(CCCCCCCC)CCCCCCCC)CCC(=O)N1CCC(O)(CN(C)C)CC1 [Compound 7] | 0.073 | 43.78 | 97.6 | Not detected
CCCCCCCCC(CCCCCCCC)COC(=O)CCCCCN1CCC(O)(CN(CCCCCC(=O)OCC(CCCCCCCC)CCCCCCCC)C2CCC2)CC1 [Compound 8] | 0.16 | 54.23 | 93.7 | C (C: ≥0.1 and <1)
CCCCCCCCC(CCCCCC)COC(=O)CCCCCN(CCCCCC(=O)OCC(CCCCCC)CCCCCCCC)CCN1CCC(O)(CN(C)C)CC1 (centres unmarked) [Compound 14] | 0.139 | 97.33 | 97.3 | Not detected
CCCCCCCCC(CCCCCCCC)COC(=O)CCCCCN(CCCCCC(=O)OCC(CCCCCCCC)CCCCCCCC)CC1(O)CCN(C(=O)CCCCN(C)C)CC1 [Compound 4] | 0.28 | 55.63 | 98.4 | Not detected
CCCCCCCCC(CCCCCC)COC(=O)CCCCCN(CCCCCC(=O)OCC(CCCCCC)CCCCCCCC)CCCCCC(=O)N1CCC(O)(CN(C)C)CC1 (centres unmarked) [Compound 9] | 0.212 | 35.26 | 97.6 | Not detected
CCCCCCCCC(CCCCCC)COC(=O)CCCCCN(C)CC1(O)CCN(CCCCCC(=O)OCC(CCCCCC)CCCCCCCC)CC1 (centres unmarked) [Compound 11] | 0.045 | 86.19 | 96.8 | B (B: ≥1 and <2)
CCCCCCCCC(CCCCCCCC)COC(=O)CCCCCN(CCCCCC(=O)OCC(CCCCCCCC)CCCCCCCC)CC1(O)CCN(C(=O)CCCN(C)C)CC1 [Compound 1] | 0.257 | 68.14 | 99.1 | Not detected
CCCCCCCCC(CCCCCC)COC(=O)CCCCCN1CCC(O)(CN(CCCCCC(=O)OCC(CCCCCC)CCCCCCCC)C2CCCCC2)CC1 (centres unmarked) [Compound 13] | 0.049 | 117.7 | 83.9 | C (C: ≥0.1 and <1)
CCCCCCCCC(CCCCCC)COC(=O)CCCCCN(CCCCCC(=O)OCC(CCCCCC)CCCCCCCC)CCN1CCC(O)(CN(C)CC)CC1 (centres unmarked) [Compound 10] | 0.083 | 133.3 | 96.7 | Not detected
CCCCCCCCC(CCCCCCCC)COC(=O)CCCCCN(CCCCCC(=O)OCC(CCCCCCCC)CCCCCCCC)CC1(O)CCN(C(=O)CN(C)C)CC1 [Compound 3] | 0.248 | 78.45 | 97.3 | Not detected
CCCCCCCCC(CCCCCCCC)COC(=O)CCCCCN(CCCCCC(=O)OCC(CCCCCCCC)CCCCCCCC)CC1(O)CCN(CCC)CC1 [Compound 6] | 0.034 | 83.23 | 92.8 | A (A: ≥2)
CCCCCCCCC(CCCCCC)COC(=O)CCCCCN1CCC(O)(CN(CCCCCC(=O)OCC(CCCCCC)CCCCCCCC)C2CCCC2)CC1 (centres unmarked) [Compound 12] | 0.084 | 109.1 | 81.5 | C (C: ≥0.1 and <1)
